This is an account of results in patent US6486343B1, “Substituted phenyl keto enols as pesticides and herbicides” (Bayer Aktiengesellschaft, priority 1996, dated 2002).

Format in all cases: in vivo
The subject of assay [1] is caterpillars of the diamond-back moth (Plutella maculipennis). Description: Plutella test. The settings on record: active compound concentration 0.1%; after 7 days; cabbage leaves dipped. On the procedure: Plutella Test Solvent: 7 parts by weight of dimethylformamide Emulsifier: 1 part by weight of alkylaryl polyglycol ether To produce a suitable preparation of active compound, 1 part by weight of active compound is mixed with the stated amount of solvent and the stated amount of emulsifier, and the concentrate is diluted with water to the desired concentration. Cabbage leaves (Brassica oleracea) are treated by being dipped into the preparation of active compound of the desired concentration and are infested with caterpillars of the diamond-back moth (Plutella maculipennis) while the leaves are still moist. After the specified period of time, the destruction in % is determined. 100% means that all the caterpillars have been killed; 0% means that none of the caterpillars have been killed.

Assay [2] has as its system mustard beetle larvae (Phaedon cochleariae). Description: Phaedon larvae test. Conditions: active compound concentration 1000 ppm; after 7 days; cabbage leaves dipped. On the procedure:
(§1) Phaedon Larvae Test Solvent: 7 parts by weight of dimethylformamide Emulsifier: 1 part by weight of alkylaryl polyglycol ether To produce a suitable preparation of active compound, 1 part by weight of active compound is mixed with the stated amount of solvent and the stated amount of emulsifier, and the concentrate is diluted with water to the desired concentration. Cabbage leaves (Brassica oleracea) are treated by being dipped into the preparation of the active compound of the desired concentration and are infested with mustard beetle larvae (Phaedon cochleariae) while the leaves are still moist. After the specified period of time, the destruction in % is determined. 100% means that all the beetle larvae have been killed; 0% means that none of the beetle larvae have been killed.

The subject of assay [3] is larvae of the green rice leafhopper (Nephotettix cincticeps). Description: Nephotettix test. Conditions: active compound concentration 0.1%; after 6 days; rice seedlings dipped. On the procedure:
as §1, with “Nephotettix” for “Phaedon Larvae”, “Rice seedlings (Oryzae sativa)” for “Cabbage leaves (Brassica oleracea)”, “with” for “with mustard beetle”, “of the green rice leafhopper (Nephotettix cincticeps)” for “(Phaedon cochleariae)”, “seedlings” for “leaves”, “leafhoppers” for “beetle larvae”

Assay [4] relates to spider mite (Tetranychus urticae). The assay is described as follows: Tetranychus test (OP resistant/dip treatment). The settings on record: active compound concentration 0.1%; after 5 days; bean plants dipped. On the procedure:
Tetranychus Test (OP Resistant/dip Treatment)
Solvent: 3 parts by weight of dimethylformamide
Emulsifier: 1 part by weight of alkylaryl polyglycol ether
To produce a suitable preparation of active compound, 1 part by weight of active compound is mixed with the stated amount of solvent and the stated amount of emulsifier, and the concentrate is diluted with water to the desired concentration.
Bean plants (Phaseolus vulgaris) heavily infected by all stages of the spider mite (Tetranychus urticae) are dipped into a preparation of the active compound of the desired concentration.
After the specified period of time, the destruction in % is determined. 100% means that all spider mites have been killed; 0% means that none of the spider mites have been killed.

Regarding `CCOC(=O)OC1=C(c2c(C)ccc(Cl)c2C)C(=O)NC12CCC(C)CC2` (centres unmarked) [I-1-c-1], the destruction in % in assay [1] and in assay [2] was 100% each time.
Take `Cc1ccc(Cl)c(C)c1C1=C(OC(=O)CC(C)C)C2(CCC(C)CC2)NC1=O` (centres unmarked) [I-1-b-1]: the destruction in % in assay [1], in assay [3] and in assay [2] was 100% in each case.
Consider `Cc1ccc(Cl)c(C)c1C1=C(OC(=O)C(C)(C)C)C2(CCCCC2)OC1=O` [I-2-b-1], for which, in assay [4], the destruction in % is 100%.
With `Cc1ccc(Cl)c(C)c1C1=C(O)C2(CCC(C)CC2)NC1=O` (centres unmarked) [I-1-a-1], the destruction in % in assay [4] and in assay [3] was 100% each time.
